For 3 molecules, IC50 results are on record in patent US7250431B2, “Thiazole derivatives” (Hoffmann-La Roche Inc., priority 2003, dated 2007).

This assay has as its target T1, mouse NPY5-receptor (mNPY5) (Mus musculus, UniProt O70342).
T1 construct: The full-length cDNA encoding the mouse NPY5 (mNPY5) receptor was amplified from mouse brain cDNA; expressed in transfected cells; membranes used
T1 sequence (O70342 1-466): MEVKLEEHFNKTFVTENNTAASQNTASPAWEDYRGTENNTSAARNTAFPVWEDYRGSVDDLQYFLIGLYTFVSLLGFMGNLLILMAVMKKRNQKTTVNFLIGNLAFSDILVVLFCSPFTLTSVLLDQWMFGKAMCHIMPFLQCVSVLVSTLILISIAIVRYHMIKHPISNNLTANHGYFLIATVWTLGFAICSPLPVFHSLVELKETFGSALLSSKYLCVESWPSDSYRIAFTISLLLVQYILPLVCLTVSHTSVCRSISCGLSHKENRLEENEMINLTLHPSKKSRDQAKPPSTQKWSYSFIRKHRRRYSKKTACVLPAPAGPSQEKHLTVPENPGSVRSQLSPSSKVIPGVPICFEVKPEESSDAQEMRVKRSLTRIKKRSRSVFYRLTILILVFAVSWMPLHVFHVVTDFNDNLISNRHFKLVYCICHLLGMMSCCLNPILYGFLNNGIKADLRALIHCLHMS
Kind of assay: Radioligand competition binding. The following applies: membranes of HEK293 cells expressing recombinant mNPY5; 100 pM [125I]labelled peptide YY; 1 h at 22° C.; read-out: NPY5-R (mouse) IC50. The source says: The full-length cDNA encoding the mouse NPY5 (mNPY5) receptor was amplified from mouse brain cDNA using specific primers, designed based on the published sequence, and Pfu DNA-Polymerase. The amplification product was subcloned into the mammalian expression vector pcDNA3 using Eco RI and XhoI restriction sites. Positive clones were sequenced and one clone, encoding the published sequence was selected for generation of stable cell clones.
Human embryonic kidney 293 (HEK293) cells were transfected with 10 μg mNPY5 DNA using the lipofectamine reagent. Two days after transfection, geneticin selection (1 mg/ml) was initiated and several stable clones were isolated. One clone was further used for pharmacological characterization.
Human embryonic kidney 293 cells (HEK293), expressing recombinant mouse NPY5-receptor (mNPY5) were broken by three freeze/thawing cycles in hypotonic Tris buffer (5 mM, pH 7.4, 1 mM MgCl2), homogenized and centrifuged at 72,000×g for 15 min. The pellet was washed twice with 75 mM Tris buffer, pH 7.4, containing 25 mM MgCl2 and 250 mM sucrose, 0.1 mM phenylmethylsulfonylfluoride and 0.1 mM 1,10-pheneanthrolin, resuspended in the same buffer and stored in aliquots at −80° C. Protein was determined according to the method of Lowry using bovine serum albumine (BSA) as a standard. […]
In general, IC50 refers to the concentration at which inhibition is half-maximal. As for `Cc1ccccc1C(=O)c1cnc(Nc2ccc(NS(=O)(=O)c3cccc(F)c3)cc2)s1` [Example 5, 3-Fluoro-N-{4-[5-(2-methyl-benzoyl)-thiazol-2-ylamino]-phenyl}-benzenesulfonamide], the IC50 worked out at 0.74 nM.

Turning to `Cc1ccccc1C(=O)c1cnc(Nc2cccc(NS(=O)(=O)c3cccs3)c2)s1` [Example 23, Thiophene-2-sulfonic acid {3-[5-(2-methyl-benzoyl)-thiazol-2-ylamino]-phenyl}-amide], the IC50 was 0.54 nM.

As to `Cc1ccccc1C(=O)c1cnc(Nc2ccc(CNS(=O)(=O)c3cc(F)ccc3C)cc2)s1` [Example 37, 5-Fluoro-2-methyl-N-{4-[5-(2-methyl-benzoyl)-thiazol-2-ylamino]-benzyl}-benzenesulfonamide], the IC50 is 0.99 nM.
